Assay results as given in patent publication US10988478B1, “Pyrazolo[1,5a]pyrimidine derivatives as IRAK4 modulators” (Genentech, Inc., priority 2015, dated 2021).

Target: human IRAK4 (Homo sapiens (Human), UniProt Q9NWZ3)
Assay: IRAK4 kinase inhibition, Transcreener fluorescence polarization ADP assay
Assay type: biochemical
Conditions: recombinant full-length His6-IRAK4; 125 uM ATP; 90 min; Ki computed using ATP Km 642 uM
Description: Compounds were assayed for inhibition of human IRAK4 and IRAK1 catalytic activity using recombinant enzyme produced from insect cells. Full-length IRAK4 protein, carrying an N-terminal His6-Tag, was obtained from Life Technologies (Carlsbad, Calif., USA). The IRAK1 construct was produced internally and was comprised of IRAK1 residues Arg194 to Ser712, preceded by an NH2-terminal His6 tag and the coding sequence for glutathione-S-transferase.

human IRAK4, sequence (Q9NWZ3 whole entry): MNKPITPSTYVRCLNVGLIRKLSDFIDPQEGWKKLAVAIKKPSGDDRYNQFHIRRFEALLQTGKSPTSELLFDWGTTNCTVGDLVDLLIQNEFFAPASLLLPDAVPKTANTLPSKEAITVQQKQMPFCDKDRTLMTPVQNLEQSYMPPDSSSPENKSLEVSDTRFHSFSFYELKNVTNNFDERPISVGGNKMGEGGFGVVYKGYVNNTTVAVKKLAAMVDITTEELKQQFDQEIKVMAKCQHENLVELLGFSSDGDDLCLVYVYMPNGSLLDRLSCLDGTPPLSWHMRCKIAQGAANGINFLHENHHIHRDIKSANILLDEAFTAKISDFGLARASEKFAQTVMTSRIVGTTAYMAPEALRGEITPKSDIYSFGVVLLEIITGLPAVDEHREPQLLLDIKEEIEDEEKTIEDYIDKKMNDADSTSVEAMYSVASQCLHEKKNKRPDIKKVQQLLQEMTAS

Going from CNC(=O)[C@H]1[C@@H]2CN(c3cc4c(cc3NC(=O)c3cnn5cccnc35)CC(C)(C)O4)C[C@@H]21 [Example 212, N-(2,2-dimethyl-6-((1R,5S,6r)-6-(methylcarbamoyl)-3-azabicyclo[3.1.0]hexan-3-yl)-2,3-dihydrobenzofuran-5-yl)pyrazolo[1,5-a]pyrimidine-3-carboxamide] to CN(C)C(=O)CN1CCN(c2cc3c(cc2NC(=O)c2cnn4cccnc24)CC(C)(C)O3)CC1 [Example 232, N-(6-(4-(2-(Dimethylamino)-2-oxoethyl)piperazin-1-yl)-2,2-dimethyl-2,3-dihydrobenzofuran-5-yl)pyrazolo[1,5-a]pyrimidine-3-carboxamide], the Ki falls from 56 nM to 34 nM (1.6-fold).

Going from C[C@]1(C2CC2)Cc2cc(NC(=O)c3cnn4cccnc34)c(N3CCN(CC(F)F)CC3)cc2O1 [Example 159, (R)—N-(2-Cyclopropyl-6-(4-(2,2-difluoroethyl)piperazin-1-yl)-2-methyl-2,3-dihydrobenzofuran-5-yl)pyrazolo[1,5-a]pyrimidine-3-carboxamide] to CC(C)(O)CN1CCN(c2cc3c(cc2NC(=O)c2cnn4cccnc24)CC(C)(C)O3)CC1 [Example 434, N-(6-(4-(2-hydroxy-2-methylpropyl)piperazin-1-yl)-2,2-dimethyl-2,3-dihydrobenzofuran-5-yl)pyrazolo[1,5-a]pyrimidine-3-carboxamide], the Ki rises from 4.4 nM to 22 nM (5-fold).

Compared with CCC1(C)Cc2cc(NC(=O)c3cnn4cccnc34)c(N3CCOCC3)cc2O1 (stereo not shown) [Example 21, N-(2-Ethyl-2-methyl-6-morpholino-2,3-dihydrobenzofuran-5-yl)pyrazolo[1,5-a]pyrimidine-3-carboxamide], CN(C)C(=O)C1(C)Cc2cc(NC(=O)c3cnn4cccnc34)c(N3CCOCC3)cc2O1 (stereo not shown) [Example 23, N-(2-(Dimethylcarbamoyl)-2-methyl-6-morpholino-2,3-dihydrobenzofuran-5-yl)pyrazolo[1,5-a]pyrimidine-3-carboxamide] is 4.8-fold higher in Ki: 6.4 nM for the first, 31 nM for the second.

Going from CC1(O)COc2cc(N3CCC(C(C)(O)C(F)(F)F)CC3)c(NC(=O)c3cnn4cccnc34)cc2C1 (stereo not shown) [Example 423, N-(3-hydroxy-3-methyl-7-(4-(1,1,1-trifluoro-2-hydroxypropan-2-yl)piperidin-1-yl)chroman-6-yl)pyrazolo[1,5-a]pyrimidine-3-carboxamide] to C[C@@]1(O)COc2cc(N3CCC(C#N)CC3)c(NC(=O)c3cnn4cccnc34)cc2C1 [Example 427, (S)-N-(7-(4-cyanopiperidin-1-yl)-3-hydroxy-3-methylchroman-6-yl)pyrazolo[1,5-a]pyrimidine-3-carboxamide], the Ki rises from 9.6 nM to 38 nM (4-fold).

Compared with Cn1cnc(COc2cc3c(cc2NC(=O)c2cnn4cccnc24)CC(C)(C)O3)c1 [Example 538, N-(2,2-dimethyl-6-((1-methyl-1H-imidazol-4-yl)methoxy)-2,3-dihydrobenzofuran-5-yl)pyrazolo[1,5-a]pyrimidine-3-carboxamide], Cc1cc(COc2cc3c(cc2NC(=O)c2cnn4cccnc24)CC(C)(C)O3)n[nH]1 [Example 542, N-[2,2-Dimethyl-6-[(5-methyl-1H-pyrazol-3-yl)methoxy]-3H-benzofuran-5-yl]pyrazolo[1,5-a]pyrimidine-3-carboxamide] is 3.7-fold lower in Ki: 220 nM for the first, 59 nM for the second. The second binds more tightly here.

Compared with CC(C)(O)[C@H](F)CN1Cc2cc(NC(=O)c3cnn4cccnc34)c(OCC3CC3)cc2C1=O [Example 496, N-[6-(Cyclopropylmethoxy)-2-[(2R)-2-fluoro-3-hydroxy-3-methyl-butyl]-1-oxo-isoindolin-5-yl]pyrazolo[1,5-a]pyrimidine-3-carboxamide], CC1(C)Cc2cc(NC(=O)c3cnn4cccnc34)c(OC[C@@H]3CNC(=O)C3)cc2O1 [Example 308, N-[2,2-Dimethyl-6-[[(3S)-5-oxopyrrolidin-3-yl]methoxy]-3H-benzofuran-5-yl]pyrazolo[1,5-a]pyrimidine-3-carboxamide] is 11-fold higher in Ki: 0.83 nM for the first, 9 nM for the second.

Going from C[C@H](C(N)=O)N1CCN(c2cc3c(cc2NC(=O)c2cnn4cccnc24)CC(C)(C)O3)CC1 [Example 472, N-[6-[4-[(1R)-2-amino-1-methyl-2-oxo-ethyl]piperazin-1-yl]-2,2-dimethyl-3H-benzofuran-5-yl]pyrazolo[1,5-a]pyrimidine-3-carboxamide] to CC(C(=O)NC1CC1)N1CCN(c2cc3c(cc2NC(=O)c2cnn4cccnc24)CC(C)(C)O3)CC1 (stereo not shown) [Example 244, N-(6-(4-(1-(Cyclopropylamino)-1-oxopropan-2-yl)piperazin-1-yl)-2,2-dimethyl-2,3-dihydrobenzofuran-5-yl)pyrazolo[1,5-a]pyrimidine-3-carboxamide], the Ki rises from 2.5 nM to 36 nM (14-fold). The first binds more tightly here.

Compared with CC1(C)Cc2cc(NC(=O)c3cnn4cc(C#N)cnc34)c(N3CCOCC3)cc2O1 [Example 407, 6-Cyano-N-(2,2-dimethyl-6-morpholino-2,3-dihydrobenzofuran-5-yl)pyrazolo[1,5-a]pyrimidine-3-carboxamide], CC1(C)Cc2cc(NC(=O)c3cnn4cc(C(N)=O)cnc34)c(N3CCOCC3)cc2O1 [Example 491, N^3-(2,2-dimethyl-6-morpholino-2,3-dihydrobenzofuran-5-yl)pyrazolo[1,5-a]pyrimidine-3,6-dicarboxamide] is 5.5-fold lower in Ki: 6 nM for the first, 1.1 nM for the second.

Compared with CC1(C)Cc2cc(NC(=O)c3cnn4cccnc34)c(OC[C@H]3[C@@H]4CNC[C@@H]43)cc2O1 [Example 295, N-(6-(((1R,5S,6R)-3-azabicyclo[3.1.0]hexan-6-yl)methoxy)-2,2-dimethyl-2,3-dihydrobenzofuran-5-yl)pyrazolo[1,5-a]pyrimidine-3-carboxamide], CC1(C)Cc2cc(NC(=O)c3cnn4cccnc34)c(C(N)=O)cc2O1 [Example 452, N-(6-carbamoyl-2,2-dimethyl-3H-benzofuran-5-yl)pyrazolo[1,5-a]pyrimidine-3-carboxamide] is 18-fold higher in Ki: 8.2 nM for the first, 150 nM for the second. The first binds more tightly here.

Going from CN1CCC2(CC1)Cc1cc(NC(=O)c3cnn4cccnc34)c(OCC(F)F)cc1O2 [Example 378, N-(6-(2,2-difluoroethoxy)-1′-methyl-3H-spiro[benzofuran-2,4′-piperidin]-5-yl)pyrazolo[1,5-a]pyrimidine-3-carboxamide] to CN1CCC2(CC1)Cc1cc(NC(=O)c3cnn4cccnc34)c(N3CCC(CO)CC3)cc1O2 [Example 371, N-(6-(4-(Hydroxymethyl)piperidin-1-yl)-1′-methyl-3H-spiro[benzofuran-2,4′-piperidin]-5-yl)pyrazolo[1,5-a]pyrimidine-3-carboxamide], the Ki falls from 7.3 nM to 1.4 nM (5.2-fold). The second binds more tightly here.

Compared with CC1(C)Cc2cc(NC(=O)c3cnn4cccnc34)c(-n3cnc(CO)c3)cc2O1 [Example 102, N-[6-[4-(hydroxymethyl)imidazo 1-1-yl]-2,2-dimethyl-3H-benzofuran-5-yl]pyrazolo[1,5-a]pyrimidine-3-carboxamide], CC1(C)Cc2cc(NC(=O)c3cnn4cccnc34)c(N3CCCNCC3)cc2O1 [Example 116, N-(6-(1,4-diazepan-1-yl)-2,2-dimethyl-2,3-dihydrobenzofuran-5-yl)pyrazolo[1,5-a]pyrimidine-3-carboxamide] is 11-fold lower in Ki: 190 nM for the first, 18 nM for the second.

CNc1cnc2c(C(=O)Nc3cc4c(cc3N3CCN(CC(F)F)CC3)OC3(CCOCC3)C4)cnn2c1 [Example 383, N-(6-(4-(2,2-difluoroethyl)piperazin-1-yl)-2′,3′,5′,6′-tetrahydro-3H-spiro[benzofuran-2,4′-pyran]-5-yl)-6-(methylamino)pyrazolo[1,5-a]pyrimidine-3-carboxamide] and CNc1cnc2c(C(=O)Nc3cc4c(cc3N3CCN(CC(F)F)CC3)OC(C)(C)C4)cnn2c1 [Example 379, N-[6-[4-(2,2-difluoroethyl)piperazin-1-yl]-2,2-dimethyl-3H-benzofuran-5-yl]-6-(methylamino)pyrazolo[1,5-a]pyrimidine-3-carboxamide] are within 1.5-fold of each other in Ki: 7.6 nM for the first, 5.1 nM for the second.

First: CC1(C)Cc2cc(NC(=O)c3cnn4cccnc34)c(N3CCCC(c4ccn[nH]4)C3)cc2O1 (stereo not shown) [Example 190, N-[2,2-dimethyl-6-[3-(1H-pyrazol-5-yl)-1-piperidyl]-3H-benzofuran-5-yl]pyrazolo[1,5-a]pyrimidine-3-carboxamide]
Second: C[C@]1(O)CCCN(c2cc3c(cc2NC(=O)c2cnn4cccnc24)C[C@](C)(CO)O3)CC1 [Example 330, N-((R)-6-((S)-4-hydroxy-4-methylazepan-1-yl)-2-(hydroxymethyl)-2-methyl-2,3-dihydrobenzofuran-5-yl)pyrazolo[1,5-a]pyrimidine-3-carboxamide]
The Ki of the first is 100-fold higher: 630 nM for the first, 6 nM for the second.

Going from C[C@]1(CO)Cc2cc(NC(=O)c3cnn4cc(Cl)cnc34)c(N3CCC(CO)CC3)cc2O1 [Example 163, (R)-6-Chloro-N-(2-(hydroxymethyl)-6-(4-(hydroxymethyl)piperidin-1-yl)-2-methyl-2,3-dihydrobenzofuran-5-yl)pyrazolo[1,5-a]pyrimidine-3-carboxamide] to CN(C)C(=O)[C@]1(C)Cc2cc(NC(=O)c3cnn4cccnc34)c(N3CCOCC3)cc2O1 [Example 438, (S)—N-(2-(dimethylcarbamoyl)-2-methyl-6-morpholino-2,3-dihydrobenzofuran-5-yl)pyrazolo[1,5-a]pyrimidine-3-carboxamide], the Ki rises from 3.9 nM to 55 nM (14-fold).

First: O=C(Nc1cc2c(cc1N1CCOCC1)C(=O)N(CC1CCOC1)C2)c1cnn2cccnc12 (single isomer, unassigned) [Example 555]
Second: O=C(Nc1cc2c(cc1N1CCOCC1)C(=O)N([C@@H]1CCC[C@H]1CO)C2)c1cnn2cccnc12 [Example 567, N-(2-((1R,2R)-2-(hydroxymethyl)cyclopentyl)-6-morpholino-1-oxoisoindolin-5-yl)pyrazolo[1,5-a]pyrimidine-3-carboxamide]
The Ki of the first is 1.6-fold lower: 3.8 nM for the first, 5.9 nM for the second.

With Cn1cc(COc2cc3c(cc2NC(=O)c2cnn4cccnc24)C[C@@](C)(O)CO3)cn1 (single isomer, unassigned) [Example 430] the Ki was 130 nM.
